Like-named read-outs stand apart in the source and are kept apart here. Starred links: 1 amine or outer side, 2 acyl side, 3 side chain; linkers in the order of their positions; H or OH if unused. Non-standard residues stand in square brackets, D forms with d. Residues, ends and D or L forms follow the SMILES beside them. *: point of attachment. dBip = N[C@H](Cc1ccc(-c2ccccc2)cc1)C(=O)O; Oic = O=C(O)[C@@H]1C[C@@H]2CCCC[C@@H]2N1; Phe(4-Cl) = N[C@@H](Cc1ccc(Cl)cc1)C(=O)O; Phe(4-I) = N[C@@H](Cc1ccc(I)cc1)C(=O)O; γGlu = O=C(O)[C@H](CCC(=O)[*:2])N[*:1]; d(β3hF) = N[C@@H](CC(=O)O)Cc1ccccc1; NMeR = CN[C@@H](CCCNC(=N)N)C(=O)O; Palmitoyl = CCCCCCCCCCCCCCCC(=O)*; Tridecanoyl = CCCCCCCCCCCCC(=O)*; hArg = N=C(N)NCCCC[C@H](N)C(=O)O; Tic = O=C(O)[C@@H]1Cc2ccccc2CN1; Cha = N[C@@H](CC1CCCCC1)C(=O)O; NMeL = CN[C@@H](CC(C)C)C(=O)O; αMeP = C[C@@]1(C(=O)O)CCCN1; β3hP = O=C(O)C[C@@H]1CCCN1; Pip = O=C(O)[C@@H]1CCCCN1; Nle = CCCC[C@H](N)C(=O)O; Dap = NC[C@H](N)C(=O)O; AEEA = NCCOCCOCC(=O)O
Assays:
[1] = In vitro stability in rat plasma; type: in vitro ADME
How it was run: (§1)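 Peptide remaining was followed by high-resolution LC-MS of methanol-quenched, centrifuged samples with internal standard. Incubations were at 37° C. over 4 hr, peptides at 5 μM final in rat plasma or in rat liver or kidney homogenate.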

[2] = In vitro stability in rat kidney homogenate; type: in vitro ADME; conditions: rat, tissue homogenate
How it was run: as §1

human APJ receptor = molecular target: T1, human APJ receptor (Homo sapiens, UniProt P35414); assay: [35S] GTPγS assay, human APJ receptor; type: biochemical
T1 construct: expressed in transfected cells
T1 sequence (P35414 1-380): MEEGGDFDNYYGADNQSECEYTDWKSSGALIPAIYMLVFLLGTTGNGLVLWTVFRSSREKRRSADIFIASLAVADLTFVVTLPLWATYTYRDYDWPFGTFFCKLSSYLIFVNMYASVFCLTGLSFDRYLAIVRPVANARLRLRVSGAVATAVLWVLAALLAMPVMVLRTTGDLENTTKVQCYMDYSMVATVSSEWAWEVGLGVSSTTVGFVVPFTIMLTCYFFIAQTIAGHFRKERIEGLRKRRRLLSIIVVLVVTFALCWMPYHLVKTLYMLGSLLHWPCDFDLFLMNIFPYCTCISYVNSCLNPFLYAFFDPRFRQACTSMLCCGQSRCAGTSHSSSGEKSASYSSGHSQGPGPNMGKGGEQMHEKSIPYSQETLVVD

[3] = In vitro stability in rat liver homogenate; type: in vitro ADME; conditions: tissue homogenate
How it was run: as §1

rat APJ receptor = molecular target: T2, rat APJ receptor (Rattus norvegicus, UniProt Q9JHG3); assay: [35S] GTPγS assay, rat APJ receptor; type: biochemical
T2 construct: expressed in transfected cells
T2 sequence (Q9JHG3 1-377): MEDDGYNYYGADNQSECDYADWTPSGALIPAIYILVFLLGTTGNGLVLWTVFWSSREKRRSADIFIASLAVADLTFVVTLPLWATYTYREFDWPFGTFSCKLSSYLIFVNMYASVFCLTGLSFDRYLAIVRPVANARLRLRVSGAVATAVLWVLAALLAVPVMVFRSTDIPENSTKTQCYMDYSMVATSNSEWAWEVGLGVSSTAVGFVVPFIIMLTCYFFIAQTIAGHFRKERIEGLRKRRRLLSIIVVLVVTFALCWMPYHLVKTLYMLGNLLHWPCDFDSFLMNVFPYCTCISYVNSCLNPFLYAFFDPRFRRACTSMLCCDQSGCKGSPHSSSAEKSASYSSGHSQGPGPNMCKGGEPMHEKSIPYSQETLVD
Experimental: The membranes were incubated with modified peptides in the assay buffer. […] Bound [^35S] GTPγS was separated from free radiolabel by filtration. The filter bound radioactivity was determined by liquid scintillation counting.

[4] = Table 16, read-out: EC50 Rat APJ Receptor
[5] = rat APJ receptor, read-out: EC50 Rat APJ Receptor

| remaining at 4 h, 5 μM [1] [%] | remaining at 4 h, 5 μM [2] [%] | EC50 (human APJ receptor; human APJ receptor) [nM] | remaining at 4 h, 5 μM [3] [%] | EC50 (human APJ receptor; Table 16) [nM] | EC50 (rat APJ receptor; [4]) [nM] | EC50 (rat APJ receptor; [5]) [nM] | Compound |
| --- | --- | --- | --- | --- | --- | --- | --- |
| > 90 | 71 | 2.77 | 77.5 | – | – | – | CCCCCCCCCCCCC(=O)N[C@@H](CCC(=O)NCCOCCOCC(=O)NCCOCCOCC(=O)N[C@@H](CCCC)C(=O)N[C@H](CCCNC(=N)N)C(=O)N[C@@H](CCC(N)=O)C(=O)N[C@@H](CCCCNC(=N)N)C(=O)N1CCC[C@H]1C(=O)N[C@H](CCCNC(=N)N)C(=O)N(C)[C@@H](CC(C)C)C(=O)N[C@@H](CO)C(=O)N[C@@H](Cc1c[nH]cn1)C(=O)N[C@@H](CCCCN)C(=O)NCC(=O)N1[C@H](C(=O)N[C@@H](Cc2ccc(I)cc2)C(=O)N2CCC[C@H]2C(=O)N[C@H](Cc2ccc(-c3ccccc3)cc2)C(=O)O)C[C@@H]2CCCC[C@@H]21)C(=O)O [compound 314] ({Tridecanoyl-γGlu-AEEA-AEEA}-[Nle][dR]Q[hArg]P[dR][NMeL]SHKG[Oic][Phe(4-I)]P[dBip]-OH) |
| – | – | – | – | 0.235 | 1.15 | – | CCCCCCCCCCCCC(=O)N[C@@H](CCC(=O)NCCOCCOCC(=O)NCCOCCOCC(=O)N[C@H](CCC(N)=O)C(=O)N[C@@H](CCCNC(=N)N)C(=O)N1CCC[C@H]1C(=O)N(C)[C@@H](CCCNC(=N)N)C(=O)N[C@@H](CC1CCCCC1)C(=O)N[C@@H](CO)C(=O)N[C@@H](Cc1c[nH]cn1)C(=O)N[C@@H](CCCCN)C(=O)NCC(=O)N1CCC[C@@]1(C)C(=O)N[C@@H](CCCC)C(=O)N[C@@H](Cc1ccc(Cl)cc1)C(=O)O)C(=O)O [compound 551] ({Tridecanoyl-γGlu-AEEA-AEEA}-[dQ]RP[NMeR][Cha]SHKG[αMeP][Nle][Phe(4-Cl)]-OH) |
| – | – | 0.463 | – | – | – | 2.85 | CCCCCCCCCCCCCCCC(=O)N[C@@H](CCC(=O)NCCOCCOCC(=O)NCCOCCOCC(=O)N[C@H](CCC(N)=O)C(=O)N[C@@H](CCCNC(=N)N)C(=O)N1CCC[C@H]1C(=O)N(C)[C@@H](CCCNC(=N)N)C(=O)N[C@@H](CC1CCCCC1)C(=O)N[C@@H](CO)C(=O)N[C@@H](Cc1c[nH]cn1)C(=O)N[C@@H](CCCCN)C(=O)NCC(=O)N1CCCC[C@H]1C(=O)N[C@@H](CCCC)C(=O)N1CCC[C@H]1C(=O)N1Cc2ccccc2C[C@H]1C(=O)O)C(=O)O [compound 598] ({Palmitoyl-γGlu-AEEA-AEEA}-[dQ]RP[NMeR][Cha]SHKG[Pip][Nle]P[Tic]-OH) |
| – | – | 2.75 | – | – | – | 17.2 | CCCCCCCCCCCCCCCC(=O)N[C@@H](CCC(=O)NCCOCCOCC(=O)NCCOCCOCC(=O)N[C@H](CCC(N)=O)C(=O)N[C@@H](CCCNC(=N)N)C(=O)N1CCC[C@H]1C(=O)N(C)[C@@H](CCCNC(=N)N)C(=O)N[C@@H](CC1CCCCC1)C(=O)N[C@@H](CO)C(=O)N[C@@H](CN)C(=O)N[C@@H](CCCCN)C(=O)NCC(=O)N1[C@H](C(=O)N[C@@H](CCCC)C(=O)N2CCC[C@H]2CC(=O)N[C@@H](CC(=O)O)Cc2ccccc2)C[C@@H]2CCCC[C@@H]21)C(=O)O [compound 616] ({Palmitoyl-γGlu-AEEA-AEEA}-[dQ]RP[NMeR][Cha]S[Dap]KG[Oic][Nle][β3hP][d(β3hF)]-OH) |
| 33 | – | – | < 1 | 10.3 | 35.8 | – | CCCCCCCCCCCCC(=O)N[C@@H](CCC(=O)NCCOCCOCC(=O)NCCOCCOCC(=O)N[C@@H](CCC(N)=O)C(=O)N[C@@H](CCC(=O)O)C(=O)N1CCC[C@H]1C(=O)N(C)[C@@H](CCCNC(=N)N)C(=O)N[C@@H](CC(C)C)C(=O)N[C@@H](CO)C(=O)N[C@@H](Cc1c[nH]cn1)C(=O)N[C@@H](CCCCN)C(=O)NCC(=O)N1CCC[C@H]1C(=O)N[C@@H](CCCC)C(=O)N1CCC[C@H]1C(=O)N[C@@H](Cc1ccc(Cl)cc1)C(=O)O)C(=O)O [compound 475] ({Tridecanoyl-γGlu-AEEA-AEEA}-QEP[NMeR]LSHKGP[Nle]P[Phe(4-Cl)]-OH) |
| – | – | – | – | 0.171 | 0.313 | – | CCCCCCCCCCCCC(=O)N[C@@H](CCC(=O)NCCOCCOCC(=O)NCCOCCOCC(=O)N[C@@H](CCC(N)=O)C(=O)N[C@@H](CCCNC(=N)N)C(=O)N1CCC[C@H]1C(=O)N1CCC[C@H]1C(=O)N[C@@H](CC(C)C)C(=O)N[C@@H](CO)C(=O)N[C@@H](Cc1c[nH]cn1)C(=O)N[C@@H](CCCCN)C(=O)NCC(=O)N1CCC[C@H]1C(=O)N[C@@H](CCCC)C(=O)N1CCC[C@H]1C(=O)N[C@@H](Cc1ccc(Cl)cc1)C(=O)O)C(=O)O [compound 427] ({Tridecanoyl-γGlu-AEEA-AEEA}-QRPPLSHKGP[Nle]P[Phe(4-Cl)]-OH) |

Reference: patent US11807693B2 (priority 2014, dated 2023)
